Columns and labels:
SW480 colon cancer cells = assay: Cell viability assay (CellTiter-Blue), SW480 cells; type: cell-based; details: Homo sapiens; for EC50: 96 h, four days, CellTiter-Blue; for inhibition at 10 µM: given for EC50 >10 μM, read-out: percent inhibition at 10 μM
Summary of the method: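 SW480 cells (~2×10^3/well) exposed to compound for four days at 37 °C/5% CO2, 1:3 8-point dilutions […]. Viability read by CellTiter-Blue resazurin reduction (~3 h, Ex 560/Em 590 nm); EC50 by non-linear regression, with % inhibition at 10 μM given when EC50 >10 μM.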

[1] = test system: primary human fibroblasts derived from IPF patients (LL29 cells) treated with TGF-β1; assay: Inhibition of fibrotic process, αSMA staining in TGF-β1 treated LL29 fibroblasts; type: cell-based; details: Fibroblast; for EC50: 96 h, TGF-β1 20 ng/mL, 4 days, % cells positive for αSMA
Summary of the method: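 Human IPF-derived LL29 lung fibroblasts in 1% FBS, TGF-β1 20 ng/mL, 11-point compound series, 0.1% DMSO, 4 days at 37 °C. SYTOX-positive cells excluded; % αSMA-positive cells imaged, normalized to TGF-β1/DMSO wells, EC50 by nonlinear fit. Above 10 μM, % inhibition at 10 μM given.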

Compound: Fc1ccccc1-c1cncc2[nH]c(-c3n[nH]c4ccc(-c5cn[nH]c5)nc34)cc12 [Compound 539, 3-(4-(2-Fluorophenyl)-1H-pyrrolo[2,3-c]pyridin-2-yl)-5-(1H-pyrazol-4-yl)-1H-pyrazolo[4,3-b]pyridine]
- EC50 (SW480 colon cancer cells): 2.89 µM
- EC50 [1]: 2.31 µM

Compound: Cn1cc(-c2ccc3[nH]nc(-c4cc5c(-c6cccnc6)cncc5[nH]4)c3n2)cn1 [Compound 556, 5-(1-Methyl-1H-pyrazol-4-yl)-3-(4-(pyridin-3-yl)-1H-pyrrolo[2,3-c]pyridin-2-yl)-1H-pyrazolo[4,3-b]pyridine]
- EC50 (SW480 colon cancer cells): 4.04 µM
- EC50 [1]: 3.02 µM

Compound: Cc1ncc(-c2ccc3[nH]nc(-c4cc5c(-c6ccncc6)cncc5[nH]4)c3n2)n1C [Compound 573, 5-(1,2-Dimethyl-1H-imidazol-5-yl)-3-(4-(pyridin-4-yl)-1H-pyrrolo[2,3-c]pyridin-2-yl)-1H-pyrazolo[4,3-b]pyridine]
- EC50 (SW480 colon cancer cells): > 10 µM
- inhibition at 10 µM (SW480 colon cancer cells): 5.3%
- EC50 [1]: 2.19 µM

Compound: c1cc(-c2cncc3[nH]c(-c4n[nH]c5ccc(-c6cncc(OCCN7CCCC7)c6)nc45)cc23)co1 [Compound 690, 3-(4-(Furan-3-yl)-1H-pyrrolo[2,3-c]pyridin-2-yl)-5-(5-(2-(pyrrolidin-1-yl)ethoxy)pyridin-3-yl)-1H-pyrazolo[4,3-b]pyridine]
- EC50 (SW480 colon cancer cells): > 10 µM
- inhibition at 10 µM (SW480 colon cancer cells): 0%
- EC50 [1]: > 10 µM
- inhibition at 10 µM ([1]; given for EC50 >10 μM, TGF-β1, αSMA, 10 μM, read-out: percent inhibition at 10 μM): 29.5%
